This note sets out measurements from ChEMBL document CHEMBL5321199, “Development of a series of quinazoline-2,5-diamine derivatives as potent hematopoietic progenitor kinase 1 (HPK1) inhibitors” (Eur J Med Chem, 2023).

Test [1] concerns the target T1, Mitogen-activated protein kinase kinase kinase kinase 1 (Homo sapiens, UniProt Q92918). Kind of test: Inhibition of HPK1 (unknown origin) at 100 nM using myelin basic protein as substrate incubated for 60 mins in presence of ATP by ADP-Glo kinase assay relative to control. On the technique in general: ADP-Glo turns the ADP formed in a reaction into a luminescent signal.
Target sequence in this assay (Q92918 whole entry, looked up): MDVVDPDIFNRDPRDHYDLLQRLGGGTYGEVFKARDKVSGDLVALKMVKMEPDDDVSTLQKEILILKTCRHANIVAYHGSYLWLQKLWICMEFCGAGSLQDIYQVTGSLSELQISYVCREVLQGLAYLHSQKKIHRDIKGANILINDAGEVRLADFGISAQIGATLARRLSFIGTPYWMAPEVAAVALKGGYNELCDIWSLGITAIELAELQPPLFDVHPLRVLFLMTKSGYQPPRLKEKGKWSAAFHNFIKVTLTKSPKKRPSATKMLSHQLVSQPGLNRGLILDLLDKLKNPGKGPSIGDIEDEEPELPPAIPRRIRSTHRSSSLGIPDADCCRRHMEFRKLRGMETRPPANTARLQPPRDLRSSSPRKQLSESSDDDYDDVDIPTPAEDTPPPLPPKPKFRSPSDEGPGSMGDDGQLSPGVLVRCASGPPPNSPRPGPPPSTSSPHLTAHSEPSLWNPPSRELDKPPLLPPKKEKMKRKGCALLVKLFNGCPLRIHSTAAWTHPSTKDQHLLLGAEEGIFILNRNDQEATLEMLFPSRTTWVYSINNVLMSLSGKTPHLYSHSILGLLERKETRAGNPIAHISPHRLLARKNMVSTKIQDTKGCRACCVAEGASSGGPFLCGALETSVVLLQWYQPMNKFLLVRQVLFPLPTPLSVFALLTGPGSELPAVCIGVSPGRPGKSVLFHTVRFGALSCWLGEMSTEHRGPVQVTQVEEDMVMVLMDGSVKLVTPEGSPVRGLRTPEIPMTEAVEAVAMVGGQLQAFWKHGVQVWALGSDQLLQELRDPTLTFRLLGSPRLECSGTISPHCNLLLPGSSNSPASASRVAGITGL

Test [2] concerns the target T1, Mitogen-activated protein kinase kinase kinase kinase 1. The test can be described thus: Inhibition of HPK1 (unknown origin) at 1 uM using myelin basic protein as substrate incubated for 60 mins in presence of ATP by ADP-Glo kinase assay relative to control.
Target sequence in this assay (Q92918 whole entry, looked up): as above
For test [3] the target is unchanged. Kind of test: Inhibition of HPK1 (unknown origin) using myelin basic protein as substrate incubated for 60 mins in presence of ATP by ADP-Glo kinase assay.
Target sequence in this assay (Q92918 whole entry): as the sequence (Q92918 whole entry, looked up) above
Test [4] has the same target. The test can be described thus: Inhibition of HPK1 in human Jurkat E6.1 cells assessed as phosphorylation of SLP76 at serine 376 residue incubated for 4 hrs by HTRF assay. It counts as cell-based.
Target sequence in this assay (Q92918 whole entry): as the sequence (Q92918 whole entry, looked up) above
For test [5] the target is unchanged. Kind of test: Inhibition of HPK1 in human PBMC cells assessed as increase in IL-2 release preincubated with compound for 1 hr followed by stimulation with CD3/CD28-dynabead measured after 16 to 18 hrs by ELISA assay. It counts as cell-based. (In an ELISA, binding on a coated surface is turned into a signal by an enzyme label.)
Target sequence in this assay (Q92918 whole entry): as the sequence (Q92918 whole entry, looked up) above
The target is the same in test [6]. Kind of test: Inhibition of HPK1 in human PBMC cells assessed as reduction in SLP76 phosphorylation at Ser376 residue preincubated with compound for 1 hr followed by stimulation with CD3/CD28-dynabead by ELISA assay. It counts as cell-based.
Target sequence in this assay (Q92918 whole entry): as the sequence (Q92918 whole entry, looked up) above
For test [7] the target is unchanged. Kind of test: Inhibition of HPK1 in human Jurkat E6.1 cells assessed as reduction in SLP76 phosphorylation at Serine 376 residue preincubated with compound for 2 hrs followed by stimulation with alphaCD3/CD28 measured after 10 mins by Western blotting analysis. It counts as cell-based. Background: In western blotting, separated proteins are transferred to a membrane and probed.
Target sequence in this assay (Q92918 whole entry): as the sequence (Q92918 whole entry, looked up) above

Test [8] shares this target. The test can be described thus: Inhibition of HPK1 in human Jurkat E6.1 cells assessed as reduction in SLP76 phosphorylation at Serine 376 residue at 0.4 to 100 nM preincubated with compound for 2 hrs followed by stimulation with alphaCD3/CD28 measured after 10 mins by Western blotting analysis. It counts as cell-based. Particulars: dose 0.4-100 nM, time 130.0 min.
Target sequence in this assay (Q92918 whole entry, looked up): as above
Test [9] shares this target. The test can be described thus: Inhibition of N-terminal DYKDDDDK tagged HPK1 CD (1 to 346 residues) (unknown origin) incubated for 1 hr in presence of ATP by TR-FRET assay.
Target sequence in this assay (Q92918 whole entry): as the sequence (Q92918 whole entry, looked up) above
Test [10] shares this target. Kind of test: Inhibition of HPK1 in human Jurkat E6.1 cells assessed as reduction in SLP76 phosphorylation at Serine 376 residue at 33 nM preincubated with compound for 2 hrs followed by stimulation with alphaCD3/CD28 measured after 10 mins by Western blotting analysis. It counts as cell-based. Conditions: time 130.0 min.
Target sequence in this assay (Q92918 whole entry, looked up): as above
The target is the same in test [11]. The test can be described thus: Inhibition of HPK1 in human PBMC cells assessed as increase in IL-2 release at above 1 uM preincubated with compound for 1 hr followed by stimulation with alphaCD3/CD28 measured after 48 hrs by ELISA assay. It counts as cell-based. Conditions: time 49.0 hrs.
Target sequence in this assay (Q92918 whole entry, looked up): as above

pEC50, pIC50: −log10 of the molar value. Activity calls are given as the source filed them. The rule behind the calls is not given here.

Consider `Cc1nn(C)cc1-c1cc(N)c2cnc(Nc3cnn(C4CC4)c3)nc2c1`, for which the inhibition (as a rule, the drop in the measured response relative to a control, in per cent) in test [1] was -5.1%; in test [2], 25.8%.

Turning to `Cc1c(-c2cc(N)c3cnc(Nc4cc(C)n(C)n4)nc3c2)cnc2c1NCCO2`, the pIC50 – broadly, the negative decadic logarithm of the IC50, by convention in mol/L – in test [3] was 7.28.

Regarding `Cc1nn(C)c(C)c1Nc1ncc2c(N)cc(-c3cnc4c(c3C)NCCO4)cc2n1`, the inhibition in [1] was 7.5%.

Turning to `Cc1c(-c2cc(N)c3cnc(Nc4ccc5c(c4)CCN(C)C5)nc3c2)cnc2c1NCCO2`, the pIC50 in test [3] is 8.32.

With `Nc1cc(-c2ccncc2)cc2nc(Nc3cnn(C4CC4)c3)ncc12`, the inhibition was -3.3% in test [1] and 24.1% in test [2].

Take `Cc1nn(C)cc1Nc1ncc2c(N)cc(-c3cnc4c(c3C)NCCO4)cc2n1`: the negative logarithm of the IC50 (pIC50) in test [3] is 8.10.

For `CC1(C)OC(=O)c2ccc(Nc3ncc(-c4nnco4)c(N[C@H](CO)c4ccccc4)n3)cc21`, the figures for the inhibition in [1] and in [2] were 92.5% and 99.7%, respectively.

In the case of `CNCc1cccc(Nc2ncc3c(N)cc(-c4cnc5c(c4C)NCCO5)cc3n2)c1`, the pIC50 in [3] was 8.30.

As to `CCN1CCc2ccc(Nc3ncc4c(N)cc(-c5cnc6c(c5C)NCCO6)cc4n3)cc2C1`, in [3], the pIC50 is 8.16.

Turning to `Cc1c(-c2cc(N)c3cnc(Nc4ccc5c(c4)CNCC5)nc3c2)cnc2c1NCCO2`, the pIC50 in test [3] is 8.52.

Take `Cc1ccc(-c2cc(N)c3cnc(Nc4cnn(C5CC5)c4)nc3c2)cn1`: the inhibition is 36.2% in test [1] and 85.9% in test [2].

For `Cc1c(-c2cc(N)c3cnc(NC(=O)C4CC4)nc3c2)cnc2c1NCCO2`, the inhibition in [1] amounted to 4.7%.

In the case of `CNCCc1cccc(Nc2ncc3c(N)cc(-c4cnc5c(c4C)NCCO5)cc3n2)c1`, the negative-log IC50 (pIC50) in test [3] was 8.22.

Turning to `Cc1c(-c2cc(N)c3cnc(Nc4ccccc4)nc3c2)cnc2c1NCCO2`, the pIC50 in [3] was 8.21.

On to `Cc1c(-c2cc(N)c3cnc(Nc4cnn(C5CC5)c4)nc3c2)cnn1C`, for which, in [3], the pIC50 was 7.21. Further, the inhibition in test [1] turned out to be 53.6%; in [2], 90.9%.

In the case of `Nc1cncc(-c2cc(N)c3cnc(Nc4cnn(C5CC5)c4)nc3c2)c1`, the pIC50 in test [3] was 7.48. Besides, the inhibition in test [1] worked out at 80%.

In the case of `Cc1cncc(-c2cc(N)c3cnc(Nc4cnn(C5CC5)c4)nc3c2)c1`, the inhibition in test [1] worked out at 42.7%; in test [2], 87.6%.

`Nc1cc(-c2ccccc2)cc2nc(Nc3cnn(C4CC4)c3)ncc12`: the inhibition was found to be 1.6% in test [1] and 33.6% in test [2].

For `Cc1c(-c2cc(N)c3cnc(Nc4cccnc4)nc3c2)cnc2c1NCCO2`, in [3], the pIC50 is 8.26.

Consider `CNCc1ccc(Nc2ncc3c(N)cc(-c4cnc5c(c4C)NCCO5)cc3n2)cc1`, for which the pIC50 in [3] is 8.37.

For the compound `Cc1c(-c2cc(N)c3cnc(Nc4ccc5c(c4)CN(C(C)C)CC5)nc3c2)cnc2c1NCCO2`, the negative logarithm of the IC50 (pIC50) in test [3] was 8.28.

Turning to `Cc1c(-c2cc(N)c3cnc(Nc4ccncc4)nc3c2)cnc2c1NCCO2`, the pIC50 in test [3] was 8.24.

As for `COc1ncc(-c2cc(N)c3cnc(Nc4cnn(C5CC5)c4)nc3c2)cc1N`, the results for the inhibition in [1] and in test [2] were 0.1% and 60.6%, respectively.

Regarding `CCn1cc(Nc2ncc3c(N)cc(-c4cnc5c(c4C)NCCO5)cc3n2)cn1`, the pIC50 in test [3] was 7.92.

In the case of `Nc1cc(-c2cccnc2)cc2nc(Nc3cnn(C4CC4)c3)ncc12`, in test [3], the pIC50 is 7.21. Also, the inhibition worked out at 56.2% in test [1] and 86% in [2].

Consider `Cn1cc(-c2cc(N)c3cnc(Nc4cnn(C5CC5)c4)nc3c2)cn1`, for which, in test [3], the negative-log IC50 (pIC50) is 7.30. Also, the inhibition in [1] worked out at 68.6%; in [2], 95.8%.

As for `CN1CCC(c2ncc(-c3cnc(N)c(OCc4cccc(C#CC(C)(C)O)c4)c3)s2)CC1`, the pIC50 in test [4] was above 7.00.

`Cc1c(-c2cc3cc(NC(=O)C4CC4)ncc3c(N)c2F)cnc2c1NCCO2`: the negative logarithm of the EC50 (pEC50) (as a rule, the EC50 on a negative log10 scale, so that one unit is a factor of ten) in test [5] was 7.80. The pIC50 is 8.51 in test [3], 7.08 in [6], 8.21 in [7] and 10.17 in test [9]. In addition, the inhibition in [1] was found to be 97.9%. In [8], the inhibition entry was “Active”.

For the compound `Cc1ccncc1-c1cc(N)c2cnc(Nc3cnn(C4CC4)c3)nc2c1`, the pIC50 in test [3] was 7.75. The figures for the inhibition in test [1] and in test [2] were 87.2% and 98.1%, respectively.

With `Cc1c(N)cncc1-c1cc(N)c2cnc(Nc3cnn(C4CC4)c3)nc2c1`, in test [3], the negative logarithm of the IC50 (pIC50) was 7.98. Besides, in [1], the inhibition is 93%.

Consider `N#Cc1ccncc1-c1cc(N)c2cnc(Nc3cnn(C4CC4)c3)nc2c1`, for which the inhibition amounted to 36.3% in test [1] and 85.5% in test [2].

As to `Nc1cc(-c2ccccn2)cc2nc(Nc3cnn(C4CC4)c3)ncc12`, the inhibition was -6.9% in [1] and 30.3% in test [2].

Regarding `Cc1c(-c2cc(N)c3cnc(Nc4ccccn4)nc3c2)cnc2c1NCCO2`, the negative-log IC50 (pIC50) in test [3] was 7.02.

Regarding `CCn1ccc(Nc2ncc3c(N)cc(-c4cnc5c(c4C)NCCO5)cc3n2)n1`, in test [3], the pIC50 was 7.81.

As to `Cn1nccc1-c1cc(N)c2cnc(Nc3cnn(C4CC4)c3)nc2c1`, the inhibition was 23.2% in test [1] and 49.2% in test [2].

In the case of `Cc1c(-c2cc(N)c3cnc(Nc4cnn(C)c4)nc3c2)cnc2c1NCCO2`, the negative logarithm of the IC50 (pIC50) in [3] was 8.11.

Regarding `COc1cc2c(cc1Nc1ncc3c(N)cc(-c4cnc5c(c4C)NCCO5)cc3n1)CN(C)CC2`, the pIC50 in [3] was 8.14.

As for `Cc1c(-c2cc(N)c3cnc(Nc4ccc5c(c4)CCNC5)nc3c2)cnc2c1NCCO2`, the pIC50 in test [3] was 8.37.

On to `Cc1c(-c2cc(N)c3cnc(Nc4cnn(C5CC5)c4)nc3c2)cnc2c1NCCO2`, for which the results for the pIC50 in test [3] and in test [7] were 8.24 and 7.64, respectively. Besides, the inhibition entry in test [10] and in test [11] was “Active” each time. For the same compound, in test [1], the inhibition is 96.3%.

As for `Cc1c(-c2cc(N)c3cnc(Nc4cnn(C(C)C)c4)nc3c2)cnc2c1NCCO2`, in [3], the pIC50 is 8.19.

Turning to `Cc1c(-c2cc(N)c3cnc(Nc4ccn(C)n4)nc3c2)cnc2c1NCCO2`, the pIC50 in test [3] was 7.90.

For the compound `Cc1c(-c2cc(N)c3cnc(Nc4cnn(C)c4C)nc3c2)cnc2c1NCCO2`, in [3], the pIC50 was 7.45.

Take `CNCCc1ccc(Nc2ncc3c(N)cc(-c4cnc5c(c4C)NCCO5)cc3n2)cc1`: the negative logarithm of the IC50 (pIC50) in test [3] is 8.25.
